In ChEMBL document CHEMBL3507680, “University of Dundee, Gates Library screen for HepG2 cell viability”:

Assay: Human HepG2 cell viability assay in 384 well format
Type: toxicity, cell-based
Parameters: dose 125 nL, time 70.5 hour; cytotoxicity at 70.5 h: concentration not given beside the values
Details: HepG2 cells, read-out: Inhibition

Compound | cytotoxicity at 70.5 h [%]
c1ccc(-c2nc3c(c(NCCn4ccnn4)n2)CCNCC3)nc1 | -6.02
CS(=O)(=O)N1CC(c2nc[nH]n2)c2cc(C(=O)NC3CC3)ccc21 (configuration not stated) | -3.52
CN(Cc1nc(Cc2cccc(F)c2)no1)C1CCOCC1 | -13.9
CC(=O)N1CCCC1c1nccnc1NCc1cccnc1 (configuration not stated) | -8.19
Cc1ccsc1CN(C)C(=O)c1cc2c([nH]c1=O)CCCC2=O | -7.76
CC(C)CCN1CCN(C(=O)c2cnccn2)CC1 | 18.6
CCc1nc(NCCn2cccn2)c2c(n1)c(C)nn2C | -7.14
CC(=O)N1CCC2(CC1)NC(=O)[C@H]1CN(Cc3cccnc3)C[C@H]12 | 18.4
Cc1ccc(-c2nc(CCNC(=O)NC3CCN(C)CC3)co2)cc1 | -4.33
CCc1ccc(C2COCCN2C(=O)Nc2cccc(C(C)=O)c2)o1 (configuration not stated) | -1.25
Cc1ccc(NCCCNC(=O)NCc2c(C)cc(C)[nH]c2=O)nc1 | -10.4
CN1CCN2C[C@@H](CO)[C@H](c3ccccc3)[C@H]2C1 | -5.05
CC1COCCN1C(=O)c1ccc(=O)n(CCOc2ccccc2)n1 (configuration not stated) | -5.11
CCCc1cc(N2CCC(Cc3cccc(C(N)=O)c3)C2)nc(C)n1 (configuration not stated) | -5.44
Cc1cc(CN(C)C(=O)CC(C)C)no1 | -2.9
CCC1=NC(SCC(=O)c2ccc(OC)cc2)c2cc(CC)sc2N1 (configuration not stated) | 12.2
c1ccc(CN2CCC(CNc3ncnc4c3CCNCC4)CC2)cc1 | 0.757
CC(C)OCCCNC(=O)Nc1cccc2ncccc12 | -2.69
Cc1ncc(-c2ccnc(SCCN(C)C)n2)c(-c2ccco2)n1 | 20.1
Cc1cc(C)n(CC2CCCN2CCCS(=O)(=O)N(C)C)n1 (configuration not stated) | -9.4
CC(C)CCC(=O)Nc1ncn(CC(=O)N2CCCCCC2)n1 | -2.61
COc1ncc(-c2cc(NCCN(C)C)nc3[nH]ccc23)c(OC)n1 | 15.3
CCN(CC)c1ccc2ccc(C(=O)NC3CC3)cn12 | -0.636

Compound | cytotoxicity at 70.5 h [%]
Cc1cc(NC(=O)C(C#N)Cc2cnn(C)c2C)no1 (configuration not stated) | -13.8
COc1ccc(C(=O)CCc2nc(C3CC3)no2)cc1 | -23.1
Cc1nc(CNC(=O)c2cc(COc3cccc(F)c3)[nH]n2)n[nH]1 | 15.3
CCOCC(O)CN1CCN(C(=O)Cc2ccccc2C)CC1 (configuration not stated) | -1.93
CC(C)c1nc(O)c2nnn(C[C@H]3CCCN(Cc4ccsc4)C3)c2n1 | -1.06
O=C(CN1CC(n2cccn2)C1)NCCc1ccc(F)cc1 | -1.33
CC(=O)Nc1nc(C(=O)NCc2ccc(N3CCCCCC3)nc2)cs1 | 7.57
O=C(Nc1ccccc1)C1CN(Cc2cccs2)CC12CCOCC2 (configuration not stated) | -6.1
Cc1cc(NC(=O)CN2CCn3c(nnc3C(C)C)C2)on1 | -0.984
COc1ccc(-c2cccc3c2OC(CN)C3)cc1F (configuration not stated) | 5.9
CCc1c(C)sc2c1c(N)nc(=O)n2CCCN(C)C | 5.31
CCn1cc(S(=O)(=O)N2CCN(S(=O)(=O)c3ccc(Br)s3)CC2)c(C)n1 | -9.33
CCn1cc(CN2CCCN(C(=O)C3=NN(C)C(=O)CC3)CC2)cn1 | 17.3
COc1ccc(C2CC(=O)c3c(O)cc(O)cc3O2)cc1O (configuration not stated) | -9.21
CCOCCn1c(=O)n(CCC(C)C)c2ncc(C(=O)O)cc21 | 1.96
O=C(NC1CCC1)[C@H]1C[C@@H]2[C@@H](C1)OCCN2CC1CC1 | 0.808
COc1ccc(NC(=O)Cn2nc(C)c(C)cc2=O)c(OC)c1 | -8.67
COCCC(=O)N1Cc2cnc(Cc3ccc(OC)cc3)nc2C1 | -1.53
N#Cc1cccc(N2CCC3(CCC(=O)N(CCCO)C3)CC2)n1 | -9.82
Cc1cccc(C(=O)N2CCN(S(C)(=O)=O)[C@@H](C)C2)c1Cl | -102
CNCc1n[nH]c(=O)n1-c1cccc(Cl)c1Cl | -8.26
O=C(NC1(c2cccc(F)c2)CCOCC1)c1ccccn1 | 12
Cn1ccnc1CN1CCC(F)(F)C2(CCN(c3cccnc3)C2)C1 (configuration not stated) | -8.56

Compound | cytotoxicity at 70.5 h [%]
CC(=O)Nc1ccc(CN(C)Cc2snnc2C)cc1 | -5.27
CCc1noc(CN(Cc2ccc3c(c2)OCO3)C2CCCC2)n1 | -10.9
CNC(=O)[C@H]1C[C@@H]2CN(C(=O)c3cscn3)C[C@@H]2N1S(C)(=O)=O | -1.08
Cc1ccc(-c2nc3cc(S(=O)(=O)N4CCCC4)ccc3n2C)o1 | -11.7
CN1CCC2(CC1)CC(NC(=O)c1csnn1)c1ccccc1O2 (configuration not stated) | -0.343
O=C(C1CCOCC1)N1C[C@@H]2[C@@H](C1)OCC(=O)N2Cc1ccncc1 | -5.97
Cn1cc(S(=O)(=O)NC(=O)C2(c3ccccc3)CCC2)cn1 | -4.68
Cc1ccc2c(c1)C1(CCN(C(N)=O)CC1)CN2CC1CC1 | -1.07
Nc1nccc(N2C[C@@H](CN3CCCCC3)[C@@H](CO)C2)n1 | -6.83
Fc1cc(Cl)cnc1N1CCCC(c2nccn2Cc2ccncc2)C1 (configuration not stated) | -14
CCCNC(=O)Cn1c(-n2nc(C)cc2C)nc(CCC)cc1=O | 3.03
OC(c1ccccc1)c1cn(C2CCN(Cc3nccs3)CC2)nn1 (configuration not stated) | -11.3
COc1ccccc1C(=O)N1CCN(C(=O)CCCc2cn[nH]c2)CC1 | -6.9
O=C(NCC1Cn2nnc(-c3ccncc3)c2CO1)c1ccsc1 (configuration not stated) | 1.38
CCOc1ccccc1CNC(=O)c1cnn(CC)c1C(F)(F)F | 17.5
Cc1nnc([C@@H]2CC[C@@H]3[C@@H](CCN3C3CCOCC3)O2)o1 | -3.43
COCCCNC(=O)CN1CCC(c2ccccc2)C1 (configuration not stated) | -7.32
Cc1oncc1C(=O)N1CCC2(CC1)C(c1cnn(C)c1)CC(=O)N2C (configuration not stated) | -9.68
O=C(N1CCOCC1)[C@@]12CCO[C@@H]1CCN(CC1CCCC1)C2 | 49.2
Cc1cc(CN2C[C@@H]3CCCO[C@@H]3[C@H](N(C)C(C)C)C2)no1 | -3.76
CN(C)c1nc(N)nc(CSCCC(=O)Nc2ccc(F)cc2)n1 | -7.07
CN1CCc2nc3cc(C(=O)NCc4cccs4)ccc3c(=O)n2CC1 | -2.15
Cc1occc1-c1nc(-c2cccc(CN3CCOCC3)c2)no1 | 0.585

Compound | cytotoxicity at 70.5 h [%]
Cc1csc(CN(C)C(C)C(=O)N2CCc3ccccc3C2)n1 (configuration not stated) | 11.5
Cc1ccc(C(=O)N2C[C@H]3CN(Cc4csc(C)n4)C[C@H]3C2)cn1 | 1.63
O=C(c1ccoc1)N1CC[C@@H](N2CCOCC2)[C@@H]1Cc1ccccc1 | -10.9
CN(Cc1cnn(C)c1)C(=O)NCc1csc(Br)c1 | 17.7
CC(=O)N1CCC(NC(=O)c2cc(S(N)(=O)=O)ccc2C)CC1 | -3.13
CC(C)c1cc(C2CCCN2C(=O)c2cn3ccsc3n2)no1 (configuration not stated) | -5.17
CCOCCN(CCOCC)c1nc(C)nc2sccc12 | -0.429
Cc1ccc(CS(=O)(=O)N2Cc3c(CN(C)C)nn(C)c3C2)cc1 | -4.61
CC(=O)NCC1CCN(C(=O)c2ccc(Sc3ccccn3)cc2)CC1 | -16.7
Cc1csc(CN2CCC[C@]3(C[C@H](Oc4ccccn4)CO3)C2)n1 | 16
Cc1ccc2nc(C)cc(C(=O)NC(C)c3nnn[nH]3)c2c1 (configuration not stated) | -0.653
Cc1c(O)oc(-c2ccc(Br)cc2)nc1=O | 53.6
CS(=O)(=O)N1CCC(Oc2ccc(C#N)cc2)CC1 | 7.19
COCc1nc(C(=O)NS(=O)(=O)c2cc(F)ccc2F)cs1 | 20.7
Cc1ccn2cc(C(=O)N3CCCC3c3c(C)nn(C)c3C)nc2c1 (configuration not stated) | -7.44
CC(=O)c1sc2nc3c(c(C(F)(F)F)c2c1N)CN(C(C)=O)CC3 | 8.25
CNc1nc(CNC(=O)Nc2cccc(-c3ncc(C)o3)c2)cs1 | 9.47
c1ccc2oc(CCCN3CCOC(Cn4cncn4)C3)nc2c1 (configuration not stated) | 14.6
CN(C)c1cc(CNC(=O)c2ccccc2Cl)ccn1 | 1.6
CS(=O)(=O)c1cn[nH]c1C1CCCCN1C(=O)Cc1cccnc1 (configuration not stated) | 5.76
COc1ccc2c(c1)CCCN(C(C)C(=O)NC(C)C)C2 (configuration not stated) | -15.7
CC[C@@H](CO)Nc1cc(-c2cn[nH]c2)ncn1 | 3.42
CC(C)Cc1cc(NC(=O)N2CCC(Oc3cccnc3)C2)n(C)n1 (configuration not stated) | 5.38

Compound | cytotoxicity at 70.5 h [%]
COCCN1CC[C@H]2CN(Cc3ccc(C)s3)C[C@@H]2C1=O | -9.57
Cc1ccc(C(C(=O)N2CCN(C(=O)c3ccc[nH]3)CC2)N(C)C)cc1 (configuration not stated) | -3.84
CC1Cc2ccccc2N1Cc1occc1C(=O)NCC(=O)N(C)C (configuration not stated) | -1.83
O=C1CCC2(CCN(c3cccc(C(F)(F)F)n3)CC2)CN1CCO | -5.14
Cc1cc(NCc2nnc3n2CCCCC3)n2nc(C)c(C)c2n1 | -5.75
COc1ccc(F)cc1CN(CC(N)=O)C(C)C | -3.68
Cc1ccc(CN2C[C@@H]3CCN(Cc4cccnc4)C(=O)[C@H]3C2)s1 | 14.5
COc1ccccc1CN(Cc1cccnc1)Cc1c[nH]c(C)n1 | 8.36
Cn1cc(-c2nc(CNCCn3cccn3)cs2)cn1 | 12.5
O=C(c1ccco1)N1CCCC2(CN(Cc3ccoc3)CCO2)C1 (configuration not stated) | -0.421
CC(C)NC(=O)CN(C)C1CCN(c2ccc(Cl)cn2)CC1 | -7
COCCN1CCN(S(=O)(=O)C2CC2)Cc2ccc(C)nc21 | -5.69
Cc1cc2c(=O)n3c(nc2s1)CCN(C(=O)c1c(C)noc1C)CC3 | -3.89
O[C@@H]1C[C@@](CNCc2ccc(F)cc2)(COc2cccnc2)C[C@@H]1O | 0.0431
Cn1nc(Cn2ccnc2)c2c1CN(c1ncccn1)C2 | -4.86
Cn1ncnc1NS(=O)(=O)c1ccc(F)cc1 | -0.583
CN1CCOC(C)(C(=O)Nc2nc(C(C)(C)C)cs2)C1 (configuration not stated) | 13.5
CNC(=O)[C@@H]1[C@H]2CNCCN2C[C@H]1c1ccccc1 | -6.11
CC(C)CCNC(=O)NC(C)c1nncn1C (configuration not stated) | 22
Cc1nc(CN(C)C2CCN(CC3CCOCC3)C2)no1 (configuration not stated) | -2.15
